Patent US20070066638A1, “RYANODINE RECEPTOR BLOCKERS FOR TREATING PAIN” (priority 2005, published 2007)
Marks after values point to notes of the source that are not given here.

What was measured:
[1] = tested on: rats with ligated L5 and L6 spinal nerves; experiment: Spinal nerve (L5/L6) ligation model of chronic pain, tactile allodynia by von Frey hairs; assay type: in vivo, rat; conditions: compared to a saline solution, 30 minutes after drug administration
[2] = tested on: sulprostone-induced allodynia in mice; experiment: Sulprostone model of transient allodynia; assay type: in vivo
Experimental: (§1) In mice, it is possible to induce transient allodynia by treating mice with chemical sensitizers. An interperitoneal injection (of a 1 ml/kg volume) of phenylephrine (an alphal receptor agonist) or sulprostone (a EP1 and EP3 prostaglandin receptor agonist) will induce transient allodynia. Alternatively, an intrathecal injection of NMDA (in a 5 ul volume) will also induce transient allodynia. The injected mice are assessed for allodynia once every 5 minutes over a 15-50 min period post injection by light stroking of the flank with a paintbrush. The allodynia response was ranked as follows: 0. No response; 1, mild squeaking with attempts to move away from the paintbrush; 2, vigorous squeaking, biting at the paintbrush and strong efforts to escape. Data is expressed as the average total score for each group. (Each animal can have a maximum score of 16 over the 50-min period.) * indicates significant difference (P<0.05) relative to sulprostone, NMDA or phenylephrine-treated rats.

[3] = tested on: phenylephrine-induced allodynia in mice; experiment: Phenylephrine model of transient allodynia; assay type: in vivo; conditions: maximum score 16
Experimental: as §1

[4] = tested on: NMDA-induced allodynia in mice; experiment: NMDA model of transient allodynia; assay type: in vivo; conditions: maximum score 16
Experimental: as §1

[5] = tested on: capsaicin-induced allodynia in Sprague-Dawley rats; experiment: Capsaicin model, tactile allodynia (von Frey filament); assay type: in vivo, rat
Experimental: Intraplantar injection of capsaicin, the active ingredient in red hot chili peppers, will induce neurogenic inflammation and transient allodynia.
Methods/subjects: Eight to ten male Sprague-Dawley rats (Charle Rivers, Sprague-Dawley, 200-300 grams) were used in these experiments. Rats received a unitlateral intradermal injection (10 ul) of capsaicin (0.1%) superficially in the mid-plantar surface of the hind paw. A successful injection was confirmed by the apperance of a bleb after intraplantar capsaicin administartion. Capsaicin, the pungent ingredient in hot peppers, has been used to produce hyperalgesia (mildly painful sensory stimuli are perceived as highly painful) in humans. When applied topically or injected into the skin, capsaicin produces burning pain, hyperalgesia to heat within the immediate vicinity of capsaicin application, and mechanical hyperalgesia within a large sorrounding (Hohmann AG, et al.). On the rat hind paw, there are no major subjective behaviour or clinical observations such as marked redness, limping, chronic licking and swelling associated with this model except for the immediate bleb formation of the given agent on the plantar surface right after the injection and as reported in the literature, short term tactile allodynia, extreme thermal […] which persist for one week.
Allodynia Assessment: Rats were placed in Plexiglas cages positioned over an elevated wire mesh platform and habituated to the testing environment for 15 to 25 min before testing. Tactile allodynia was assessed using a single von frey filament (5.18) with a bending force of 10 grams (Dixon). Tactile allodynia refers to a nocifensive behavior elicited by a light touch or innocuous (here, mechanical) stimulus and was operationally defined as a lowering of the threshold for paw withdrawal from punctate mechanical stimulation (Hohmann AG, et al.). The filaments were positioned in contact with the hind paw for a duration of 5 s or until a withdrawal response occurred and repeated 10 consecutive times. This procedure was repeated three times to obtain a total of thirty responses and then averaged. Contralateral testing was also done; no capsaicin was given. Data are presented as paw withdrawl frequency (%). * indicates significant difference (P<0.05) relative to vehicle-treated rats.

[6] = tested on: rats; experiment: Rotarod motor performance; assay type: in vivo, rat; conditions: fifteen minutes post-dosing, acceleration mode 5-15 RPM, in s (unit assumed)
Text: The Rotamex® 4/8 Rota-rod is a device to test the motor performance decrement, performance time, partial or complete ataxia, and the motor coordination in laboratory animals. The principle of this system is to measure the time each animal manages to maintain walking on the moving rod. Drugs or conditions that cause muscular relaxation will interfere with this coordination and agility, causing the animal to fall from a safe height to a grid below.
The animals were conditioned before performing the test. Animals were required to pass three stages of conditioning on the Rota-rod prior to inclusion in the experiment. During the first stage of conditioning, animals were required to perch on the stationary rod for 30 seconds to accustom themselves to the environment.
Rats that fail to perch for 30 seconds will fall to the grid below. The fall alone typically serves as an adequate aversive stimulus and the animals learn to stay on the perch.
In the second stage of conditioning, the animals that passed the first stage of conditioning were then allowed to walk at a constant speed of 5-rpm for 90 seconds. Any animal that fell off the rod during this trial were allowed to fall to the grid below. Animals are required to stay on the rod for 90 seconds in three consecutive trials out of six total trials, or else they were excluded from the study.
In the final stage of conditioning, about 10-30 minutes after the last trial for each animal that passed the first two stages of conditioning, the animals were placed back on the rod in groups of four and allowed to run in an acceleration mode with a start speed of 5 rpm and an end speed of 15 rpm for 90 seconds. […] A mean performance time was calculated for all animals that managed to stay on the rotating rod for at least 80 seconds. […] Mean performance times were calculated and used as pre-drug baseline values. […] Fifteen minutes post-dosing, the animals were placed back on the rod and the mean performance time in acceleration mode (5-15 RPM) is measured again. […]

[7] = tested on: Sprague-Dawley rats; experiment: Activity monitor (locomotor activity); assay type: in vivo, rat; conditions: 10 mg/kg intraperitoneal, thirty minutes after injection
Experimental: Locomotor activity of male Sprague-Dawley rats (Charles River, Wilmington, Mass.) weighing approximately 300 grams was measured thirty minutes following intraperitoneal injection of vehicle or test compound. Test animals were placed in a dark chamber and a Digicom analyzer (Omnitech Electronic, Columbus, Ohio), which records the number of interruptions of an array of 32 photoelectric beams in the X and Y orientation, quantitated exploratory behavior during a five-minute period. Horizonal activity (HD) and total distance (TD) are presented, as well as % vehicle values. * indicates significant difference (P<0.05) relative to vehicle-treated rats.

[8] = tested on: ryanodine receptor-channel complex; conditions: See Biochemistry 2001, 40, 531-542; cited from earlier work

## O=C1CN(N=Cc2ccc(-c3ccc([N+](=O)[O-])cc3)o2)C(=O)N1 [Dantrolene, 1-[[5-(p-Nitrophenyl)furfurylidene]amino]hydantoin]
[1]; i.p. 300 ng/kg
  reversal of allodynic pain (tactile allodynia): reverses the allodynic pain
[1]; i.p. 3000 ng/kg
  reversal of allodynic pain (tactile allodynia): reverses the allodynic pain
[1]; i.p. 100 mg/kg
  reversal of allodynic pain (tactile allodynia): reverses the allodynic pain
[1]; i.p. dose of 100 ng/kg
  reversal of allodynic pain (tactile allodynia): reverses the allodynic pain
[2]; Sulprostone 300 ng/kg + Dantrolene 3 mg/kg, maximum score 16
  Mean pain score: 12.6 ± 1.5
[2]; Sulprostone 300 ng/kg + Dantrolene 10 mg/kg, maximum score 16
  Mean pain score: 9.5 ± 1.9*
[2]; Sulprostone 300 ng/kg + Dantrolene 20 mg/kg, maximum score 16
  Mean pain score: 4.8 ± 0.9*
[3]; PE 100 ng/kg + Dantrolene 3 mg/kg
  Mean pain score: 9.4 ± 1.6
[3]; PE 100 ng/kg + Dantrolene 10 mg/kg
  Mean pain score: 6.5 ± 1.2*
[4]; NMDA 100 ng + Dantrolene 3 mg/kg
  Mean pain score: 9.3 ± 0.8*
[4]; NMDA 100 ng + Dantrolene 10 mg/kg
  Mean pain score: 7.0 ± 1.0*
[5]; Injected paw, 15 min after capsaicin, dantrolene 3 mg/kg IP 30 minutes before capsaicin
  paw withdrawl frequency: 36 ± 3.7%
[5]; Injected paw, 30 min after capsaicin, dantrolene 3 mg/kg IP 30 minutes before capsaicin
  paw withdrawl frequency: 8 ± 1.7 * %
[5]; Injected paw, 60 min after capsaicin, dantrolene 3 mg/kg IP 30 minutes before capsaicin
  paw withdrawl frequency: 7 ± 2.1%
[5]; Injected paw, Baseline before Caps., dantrolene 3 mg/kg IP
  paw withdrawl frequency: 7 ± 0.9%
[5]; Uninjected paw, 15 min., dantrolene 3 mg/kg IP
  paw withdrawl frequency: 5 ± 1.1%
[5]; Uninjected paw, 30 min., dantrolene 3 mg/kg IP
  paw withdrawl frequency: 2 ± 1.1%
[5]; Uninjected paw, 60 min., dantrolene 3 mg/kg IP
  paw withdrawl frequency: 3 ± 1.3%
[5]; Uninjected paw, Baseline, dantrolene 3 mg/kg IP
  paw withdrawl frequency: 5 ± 1%
[6]; 3 mg/kg IP
  Mean time on bar: 74.33 ± 7.47
[6]; 10 mg/kg IP
  Mean time on bar: 79.67 ± 5.43
[6]; 20 mg/kg IP
  Mean time on bar: 37.67 ± 10.4*
[7]
  HA % vehicle: 82.4%
  TD % vehicle: 59.4%
[7]; five-minute period
  HA (horizontal activity): 1125.6 ± 114.5
  TD (total distance): 290 ± 48.4
[8]
  action on ryanodine receptor-channel complex: antagonist of the ryanodine receptor-channel complex

## CN[C@H](CC(=O)O)C(=O)O [NMDA]
[4]; NMDA 100 ng intrathecal alone
  Mean pain score: 14.2 ± 1.1

## CNC[C@H](O)c1cccc(O)c1 [PE, phenylephrine]
[3]; PE 100 ng/kg alone
  Mean pain score: 11.3 ± 0.9

## CS(=O)(=O)NC(=O)CCC/C=C\C[C@H]1C(=O)C[C@@H](O)[C@@H]1/C=C/[C@@H](O)COc1ccccc1 [Sulprostone]
[2]; Sulprostone (I.P) 300 ng/kg alone, total score, maximum 16
  Mean pain score: 14.0 ± 0.5
